The source of these data is patent US9708336B2, “Metallo-beta-lactamase inhibitors” (priority 2014, dated 2017).

The target of one experiment is IMP-1 (Serratia marcescens, UniProt P52699). As to the kind of experiment: biochemical. In kind it is biochemical. As to conditions: IMP-1 enzyme, CCF2-FA substrate; read-out: IMP-1 IC50.
Experiment [1] relates to Klebsiella pneumoniae expressing VIM-1 (IHMA599644). Put plainly: Antibiotic potentiation activity: synergistic concentration (MITC95) with imipenem, OD600 growth. In kind it is cell-based. The following applies: Klebsiella pneumoniae IHMA599644 (VIM-1), 95% growth inhibition. In short, it runs like this: (§1)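 Each strain, suspended in saline from overnight colonies and diluted 1:100 into 1.1× CAMHB, is dosed with imipenem at 4 μg/ml (or 1 μg/ml) plus compound, incubated 22–24 h at 35 °C and read by absorbance.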

Experiment [2] relates to Escherichia coli expressing NDM-1 (CLB30016). The description is as above. In kind it is cell-based. The following applies: (CLB30016, NDM-1), 95% growth inhibition. In short, it runs like this: as §1
Experiment [3] has as its system Serratia marcescens expressing IMP-1 (CL5741). The description is as above. In kind it is cell-based. As to conditions: Serratia marcescens CL5741 (IMP-1), 95% growth inhibition. The method in brief: as §1
The next experiment has as its target NDM-1 (Klebsiella pneumoniae, UniProt C7C422). Put plainly: biochemical. The following applies: NDM-1 enzyme, CCF2-FA substrate; read-out: NDM-1 IC50. The class given is biochemical.
In the next experiment the target is VIM-1 (Pseudomonas aeruginosa (strain ATCC 15692 / DSM 22644 / CIP 104116 / JCM 14847 / LMG 12228 / 1C / PRS 101 / PAO1), UniProt A0A0F7KYQ8). Put plainly: Enzyme activity: determination of IC50, fluorescence assay with CCF2-FA substrate (VIM-1). The class given is biochemical. As to conditions: CCF2-FA substrate.
Setting [4] is: VIM-1 enzyme, read-out: VIM-1 IC50.

Read-outs that look alike come from different tables or passages of the source. Some results are limits rather than exact numbers.

NDM-1, sequence (C7C422 whole entry, looked up, species assumed): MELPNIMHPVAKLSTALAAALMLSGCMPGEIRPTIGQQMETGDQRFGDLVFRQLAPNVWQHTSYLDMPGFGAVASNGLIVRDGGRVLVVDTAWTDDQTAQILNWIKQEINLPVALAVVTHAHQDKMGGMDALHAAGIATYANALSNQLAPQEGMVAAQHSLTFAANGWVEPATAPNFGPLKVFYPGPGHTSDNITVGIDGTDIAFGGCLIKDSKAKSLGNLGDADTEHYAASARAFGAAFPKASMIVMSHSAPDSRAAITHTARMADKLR
IMP-1, sequence (P52699 whole entry, looked up): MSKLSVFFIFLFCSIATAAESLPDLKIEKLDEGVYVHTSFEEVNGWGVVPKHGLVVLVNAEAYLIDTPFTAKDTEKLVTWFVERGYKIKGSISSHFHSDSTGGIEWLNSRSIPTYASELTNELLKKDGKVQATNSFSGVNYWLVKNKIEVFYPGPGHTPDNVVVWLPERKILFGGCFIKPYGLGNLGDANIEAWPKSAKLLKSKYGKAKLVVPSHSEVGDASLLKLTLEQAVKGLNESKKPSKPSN

Regarding `NS(=O)(=O)c1c(CC2CCNCC2)ccc(-c2ccc(C3CNC3)cc2)c1-c1nnn[nH]1` [Example 597, 3-[4-(azetidin-3-yl)phenyl]-6-(4-piperidylmethyl)-2-(1H-tetrazol-5-yl)benzenesulfonamide], the results for the IC50 at IMP-1, on NDM-1 and at VIM-1 (setting [4]) were 46 nM, 8.86 nM and 1.24 nM, respectively. For the same compound, the “Klebsiella pneumoniae MITC95” value in experiment [1] amounted to 1.563 µM. For the same compound, in experiment [2], the “Escherichia coli MITC95” value worked out at 1.563 µM. Further, in experiment [3], the “Serratia marcescens MITC95” value was 3.125 µM.
`NS(=O)(=O)c1c(CC[C@H]2CC[C@H](N)CC2)ccc(-c2ccc(C3CNC3)cc2)c1-c1nnn[nH]1` [Example 599, 4-(2-((1r,4s)-4-aminocyclohexyl)ethyl)-4′-(azetidin-3-yl)-2-(1H-tetrazol-5-yl)-[1,1′-biphenyl]-3-sulfonamide]: the IC50 worked out at 6.43 nM at IMP-1; 2.12 nM at NDM-1; 5.33 nM against VIM-1 (VIM-1 IC50, VIM-1 enzyme). The “Klebsiella pneumoniae MITC95” value in experiment [1] was 3.125 µM. Moreover, the “Escherichia coli MITC95” value in experiment [2] amounted to 1.563 µM. Also, the “Serratia marcescens MITC95” value in experiment [3] was 3.125 µM.
For the compound `NS(=O)(=O)c1c(CC[C@H]2CC[C@@H](N)CC2)ccc(-c2ccc(C3CNC3)cc2)c1-c1nnn[nH]1` [Example 600, 4-(2-((1s,4r)-4-aminocyclohexyl)ethyl)-4′-(azetidin-3-yl)-2-(1H-tetrazol-5-yl)-[1,1′-biphenyl]-3-sulfonamide], the IC50 on IMP-1 came out at 43.8 nM; at NDM-1, 2.56 nM; at VIM-1 (VIM-1 IC50, VIM-1 enzyme), 0.861 nM. For the same compound, the “Klebsiella pneumoniae MITC95” value in experiment [1] is 3.125 µM. In addition, in experiment [2], the “Escherichia coli MITC95” value amounted to 1.563 µM. Further, the “Serratia marcescens MITC95” value in experiment [3] was determined as 6.25 µM.
In the case of `NC[C@H]1CC[C@H](Cc2ccc(-c3ccc(C4CNC4)cc3)c(-c3nnn[nH]3)c2S(N)(=O)=O)CC1` [Example 601, 4-(((1r,4r)-4-(aminomethyl)cyclohexyl)methyl)-4′-(azetidin-3-yl)-2-(1H-tetrazol-5-yl)-[1,1′-biphenyl]-3-sulfonamide], the IC50 at IMP-1 was 13.1 nM; on NDM-1, 1.66 nM; on VIM-1 (VIM-1 IC50, VIM-1 enzyme), 0.587 nM. In addition, the “Klebsiella pneumoniae MITC95” value in experiment [1] amounted to 1.563 µM. The “Escherichia coli MITC95” value in experiment [2] was 1.563 µM. For the same compound, the “Serratia marcescens MITC95” value in experiment [3] stood at 3.125 µM.
For the compound `NC[C@H]1CC[C@@H](Cc2ccc(-c3ccc(C4CNC4)cc3)c(-c3nnn[nH]3)c2S(N)(=O)=O)CC1` [Example 602, 4-(((1s,4s)-4-(aminomethyl)cyclohexyl)methyl)-4′-(azetidin-3-yl)-2-(1H-tetrazol-5-yl)-[1,1′-biphenyl]-3-sulfonamide], the IC50 worked out at 21 nM on IMP-1; 3.95 nM at NDM-1; 2.47 nM on VIM-1 (VIM-1 IC50, VIM-1 enzyme). In addition, the “Klebsiella pneumoniae MITC95” value in experiment [1] amounted to 1.563 µM. Also, the “Escherichia coli MITC95” value in experiment [2] stood at 1.563 µM. For the same compound, the “Serratia marcescens MITC95” value in experiment [3] worked out at 3.125 µM.
As to `N=C(N)N1CC(c2ccc(-c3ccc(CC4CCNCC4)c(S(N)(=O)=O)c3-c3nn[nH]n3)cc2)C1` [Example 603, 3-[4-[4-(4-piperidylmethyl)-3-sulfamoyl-2-(2H-tetrazol-5-yl)phenyl]phenyl]azetidine-1-carboxamidine], the IC50 on IMP-1 worked out at 31.9 nM; on NDM-1, 21.6 nM; on VIM-1 (setting [4]), 4.73 nM. Also, the “Klebsiella pneumoniae MITC95” value in experiment [1] worked out at 1.563 µM. Also, in experiment [2], the “Escherichia coli MITC95” value is 3.125 µM. Also, the “Serratia marcescens MITC95” value in experiment [3] is 1.563 µM.
On to `N=C(N)N1CCC(Cc2ccc(-c3ccc(C4CNC4)cc3)c(-c3nn[nH]n3)c2S(N)(=O)=O)CC1` [Example 604, 4-[[4-[4-(azetidin-3-yl)phenyl]-2-sulfamoyl-3-(2H-tetrazol-5-yl)phenyl]methyl]piperidine-1-carboxamidine], for which the figures for the IC50 at IMP-1, on NDM-1 and at VIM-1 (setting [4]) were 41.7 nM, 3.31 nM and 0.899 nM, respectively. The “Klebsiella pneumoniae MITC95” value in experiment [1] amounted to 1.563 µM. Moreover, in experiment [2], the “Escherichia coli MITC95” value amounted to 1.563 µM. The “Serratia marcescens MITC95” value in experiment [3] came out at 6.25 µM.
With `NCCN1CCC(Cc2ccc(-c3ccc(C4CNC4)cc3)c(-c3nn[nH]n3)c2S(N)(=O)=O)CC1` [Example 606, 6-[[1-(2-aminoethyl)-4-piperidyl]methyl]-3-[4-(azetidin-3-yl)phenyl]-2-(2H-tetrazol-5-yl)benzenesulfonamide], the IC50 at IMP-1 amounted to 51.4 nM; on NDM-1, 17.7 nM; on VIM-1 (VIM-1 IC50, VIM-1 enzyme) it was 1.12 nM. Further, in experiment [1], the “Klebsiella pneumoniae MITC95” value is 1.563 µM. Besides, in experiment [2], the “Escherichia coli MITC95” value worked out at 0.7813 µM. The “Serratia marcescens MITC95” value in experiment [3] amounted to 3.125 µM.
On to `NS(=O)(=O)c1c(CC2CCN(CCO)CC2)ccc(-c2ccc(C3CNC3)cc2)c1-c1nn[nH]n1` [Example 607, 3-[4-(azetidin-3-yl)phenyl]-6-[[1-(2-hydroxyethyl)-4-piperidyl]methyl]-2-(2H-tetrazol-5-yl)benzenesulfonamide], for which the IC50 on IMP-1 stood at 42.2 nM; on NDM-1 it was 11.3 nM; at VIM-1 (setting [4]) it was 2.07 nM. For the same compound, the “Klebsiella pneumoniae MITC95” value in experiment [1] was determined as 1.563 µM. The “Escherichia coli MITC95” value in experiment [2] was 1.563 µM. Moreover, in experiment [3], the “Serratia marcescens MITC95” value turned out to be 3.125 µM.
`NS(=O)(=O)c1c(CC2CCNCC2)ccc(-c2ccc(C3CN(CCO)C3)cc2)c1-c1nn[nH]n1` [Example 608, 3-[4-[1-(2-hydroxyethyl)azetidin-3-yl]phenyl]-6-(4-piperidylmethyl)-2-(2H-tetrazol-5-yl)benzenesulfonamide]: the values for the IC50 on IMP-1, on NDM-1 and at VIM-1 (setting [4]) were 127 nM, 30.4 nM and 45 nM, respectively. The “Klebsiella pneumoniae MITC95” value in experiment [1] was 6.25 µM. Moreover, the “Escherichia coli MITC95” value in experiment [2] worked out at 6.25 µM. Further, the “Serratia marcescens MITC95” value in experiment [3] is 6.25 µM.
As for `NC(=O)CN1CCC(Cc2ccc(-c3ccc(C4CNC4)cc3)c(-c3nn[nH]n3)c2S(N)(=O)=O)CC1` [Example 609, 2-[4-[[4-[4-(azetidin-3-yl)phenyl]-2-sulfamoyl-3-(2H-tetrazol-5-yl)phenyl]methyl]-1-piperidyl]acetamide], the IC50 on IMP-1 was determined as 83.9 nM; on NDM-1, 21.3 nM; at VIM-1 (setting [4]), 1.64 nM. Also, the “Klebsiella pneumoniae MITC95” value in experiment [1] was found to be 3.125 µM. In addition, the “Escherichia coli MITC95” value in experiment [2] was determined as 6.25 µM. Further, the “Serratia marcescens MITC95” value in experiment [3] worked out at 12.5 µM.
As for `Nc1nc2ccc(-c3ccc(CC4CCNCC4)c(S(N)(=O)=O)c3-c3nn[nH]n3)cc2[nH]1` [Example 610, 3-(2-amino-3H-benzo[d]imidazol-5-yl)-6-(piperidin-4-ylmethyl)-2-(2H-tetrazol-5-yl)benzenesulfonamide], the IC50 on IMP-1 is 114 nM; on NDM-1, 2.92 nM; at VIM-1 (setting [4]), 6.39 nM. Also, the “Klebsiella pneumoniae MITC95” value in experiment [1] stood at 1.563 µM. Moreover, the “Escherichia coli MITC95” value in experiment [2] came to 0.3906 µM. Further, the “Serratia marcescens MITC95” value in experiment [3] was determined as 3.125 µM.
Regarding `Nc1nc2cc(-c3ccc(CC4CNC4)c(S(N)(=O)=O)c3-c3nn[nH]n3)ccc2[nH]1` [Example 611, 3-(2-amino-3H-benzo[d]imidazol-5-yl)-6-(azetidin-3-ylmethyl)-2-(2H-tetrazol-5-yl)benzenesulfonamide], the IC50 at IMP-1 turned out to be 344 nM; on NDM-1, 17.7 nM; at VIM-1 (setting [4]), 20.1 nM. In experiment [1], the “Klebsiella pneumoniae MITC95” value is 1.563 µM. The “Escherichia coli MITC95” value in experiment [2] is 0.3906 µM. Also, the “Serratia marcescens MITC95” value in experiment [3] turned out to be 12.5 µM.
As to `Nc1nc2cccc(-c3ccc(CC4CCNCC4)c(S(N)(=O)=O)c3-c3nn[nH]n3)c2[nH]1` [Example 612, 3-(2-amino-3H-benzo[d]imidazol-4-yl)-6-(piperidin-4-ylmethyl)-2-(2H-tetrazol-5-yl)benzenesulfonamide], the IC50 stood at 65.5 nM on IMP-1, 1.63 nM at NDM-1 and 7.23 nM at VIM-1 (setting [4]). Further, the “Klebsiella pneumoniae MITC95” value in experiment [1] was found to be 1.281 µM. Besides, the “Escherichia coli MITC95” value in experiment [2] is 0.5 µM. Further, in experiment [3], the “Serratia marcescens MITC95” value is 2.563 µM.
As for `NCCCN1CCC(c2ccc(-c3cccc(S(N)(=O)=O)c3-c3nnn[nH]3)cc2)CC1` [Example 613, 3-[4-[1-(3-aminopropyl)-4-piperidyl]phenyl]-2-(1H-tetrazol-5-yl)benzenesulfonamide], the IC50 turned out to be 36.3 nM on IMP-1, 14.1 nM on NDM-1 and 253 nM at VIM-1 (setting [4]). Besides, in experiment [1], the “Klebsiella pneumoniae MITC95” value turned out to be 18.75 µM. Further, the “Escherichia coli MITC95” value in experiment [2] was determined as 0.25 µM. Besides, in experiment [3], the “Serratia marcescens MITC95” value was 0.543 µM.
Regarding `CC(C)[C@@H](N)CN1CCC(c2ccc(-c3cccc(S(N)(=O)=O)c3-c3nnn[nH]3)cc2)CC1` [Example 614, 3-[4-[1-[(2R)-2-amino-3-methyl-butyl]-4-piperidyl]phenyl]-2-(1H-tetrazol-5-yl)benzenesulfonamide], the IC50 on IMP-1 is 11.6 nM; on NDM-1, 5.89 nM; on VIM-1 (setting [4]), 505 nM. The “Klebsiella pneumoniae MITC95” value in experiment [1] was above 200 µM. Also, the “Escherichia coli MITC95” value in experiment [2] came out at 1.172 µM. For the same compound, in experiment [3], the “Serratia marcescens MITC95” value amounted to 1.563 µM.
